Assay results: article PMC13110267, “Fair and Square: Design, Synthesis and Biological Evaluations of Squaric Acid Derivatives as Novel HDAC8 Inhibitors” (Chemmedchem, 2026)

Columns and labels:
HDAC4 = target: T1, HDAC4 (Homo sapiens, UniProt P56524); experiment: HDAC4 fluorometric enzyme inhibition assay, purified recombinant enzyme, 10-point dose-response; type: biochemical; conditions: Table 1; purified recombinant HDAC4 1 nM; mean of three independent experiments; >35 µM = weak inhibitor
T1 construct: made in house
Procedure: (§1) Therefore, the first stage of biological evaluation focused on determining inhibitory concentration (IC50) values of the squaric acid derivatives against HDAC8 and HDAC4 using purified recombinant enzymes. Enzymatic inhibition was quantified using 10‐point dose–response assays, from which IC50 values were calculated (Table 1). HDAC8 and HDAC4 were employed at concentrations of 10 nM and 1 nM, respectively, while other zinc‐dependent HDAC isoenzymes were used at approximate concentrations of ∼1 nM, reflecting the purity of the commercially available preparations. […]
(§2) 1.3.1 HDAC Assay General Inform ation
(§3) The activity of HDAC1, HDAC4, HDAC6, HDAC8, and HDAC11 was determined using a fluorometric assay in black half-area 96-well microplates (Greiner Bio -One , Germany). HDAC1 (#50051) and HDAC 6 (#50006) were purchased from BPS Bioscience.
(§4) HDAC4, HDAC8 and HDAC11 were produced in house as previously described.7- 9 The enzymes were pre-incubated with serial dilutions of the compounds for 1 hour at 30 °C in either assay buffer (25 mM Tris-HCl, 75 mM KCl and 0.001% (v/v) Pluronic F -127, pH 8.0) or MAL buffer (137 m M NaCl, 50 mM Tris-HCl, 2.7 mM KCl, 1 mM MgCl₂, 0 .5 mg/ml bovine serum albumin (BSA), pH 8.0b) for HDAC11. The enzyme reaction was initiated by the addition of the following substrates: 20 µM Boc-L ys(T FA) -AMC for HDAC4 and HDAC8; 80 µM Boc-L ys(T FA) -AMC for HDAC11; and 50 µM Boc -Lys(Ac)-AMC for HDAC1 and HDAC6. After an incubation period of 60 minutes, the reaction was terminated by the addition of 1.7 µM 9,9,9-trifluoro-8-oxo-N -phenyl -nonanamide (SATFMK) for […]
(§5) HDAC6, and 1 µM 1,1-dimethyl -2-[5-(trifluoromethyl)pyrazin-2-yl]isoindoline -4-carbohydroxamic acid (FT895) for HDAC11. The deacetylated substrate was then cleaved into fluorescent 7-amino -4- methylcoumarin (AMC) by the addition of 0.42 mg/mL trypsin.
(§6) Measurements were performed using a PHERAstar FS fluorescence microplate reader (BMG LABTECH) with excitation at 360 nm and emission at 460 nm. The normalised enzyme activities were plotted against the respective ligand concentration and fitted with a four-parameter logistic function using GraphPad Prism 6 software.

HDAC8 = target: T2, HDAC8 (Homo sapiens, UniProt Q9BY41); experiment: HDAC8 fluorometric enzyme inhibition assay, purified recombinant enzyme, 10-point dose-response; type: biochemical; conditions: Table 1; purified recombinant HDAC8 10 nM; mean of three independent experiments; >35 µM = weak inhibitor
T2 construct: made in house
T2 sequence (Q9BY41 1-377): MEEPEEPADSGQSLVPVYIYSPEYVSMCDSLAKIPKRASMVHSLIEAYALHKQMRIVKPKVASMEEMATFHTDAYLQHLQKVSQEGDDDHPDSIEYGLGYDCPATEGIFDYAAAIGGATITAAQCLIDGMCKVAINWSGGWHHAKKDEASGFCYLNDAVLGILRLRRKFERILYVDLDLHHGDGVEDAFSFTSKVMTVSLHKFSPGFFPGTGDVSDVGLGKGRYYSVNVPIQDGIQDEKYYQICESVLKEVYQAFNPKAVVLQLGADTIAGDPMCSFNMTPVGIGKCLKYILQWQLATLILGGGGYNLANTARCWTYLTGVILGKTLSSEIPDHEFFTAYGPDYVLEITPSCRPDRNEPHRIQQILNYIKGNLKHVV
Procedure: as §1, §2, §3, §4, §5, §6

T1 sequence (P56524 whole entry): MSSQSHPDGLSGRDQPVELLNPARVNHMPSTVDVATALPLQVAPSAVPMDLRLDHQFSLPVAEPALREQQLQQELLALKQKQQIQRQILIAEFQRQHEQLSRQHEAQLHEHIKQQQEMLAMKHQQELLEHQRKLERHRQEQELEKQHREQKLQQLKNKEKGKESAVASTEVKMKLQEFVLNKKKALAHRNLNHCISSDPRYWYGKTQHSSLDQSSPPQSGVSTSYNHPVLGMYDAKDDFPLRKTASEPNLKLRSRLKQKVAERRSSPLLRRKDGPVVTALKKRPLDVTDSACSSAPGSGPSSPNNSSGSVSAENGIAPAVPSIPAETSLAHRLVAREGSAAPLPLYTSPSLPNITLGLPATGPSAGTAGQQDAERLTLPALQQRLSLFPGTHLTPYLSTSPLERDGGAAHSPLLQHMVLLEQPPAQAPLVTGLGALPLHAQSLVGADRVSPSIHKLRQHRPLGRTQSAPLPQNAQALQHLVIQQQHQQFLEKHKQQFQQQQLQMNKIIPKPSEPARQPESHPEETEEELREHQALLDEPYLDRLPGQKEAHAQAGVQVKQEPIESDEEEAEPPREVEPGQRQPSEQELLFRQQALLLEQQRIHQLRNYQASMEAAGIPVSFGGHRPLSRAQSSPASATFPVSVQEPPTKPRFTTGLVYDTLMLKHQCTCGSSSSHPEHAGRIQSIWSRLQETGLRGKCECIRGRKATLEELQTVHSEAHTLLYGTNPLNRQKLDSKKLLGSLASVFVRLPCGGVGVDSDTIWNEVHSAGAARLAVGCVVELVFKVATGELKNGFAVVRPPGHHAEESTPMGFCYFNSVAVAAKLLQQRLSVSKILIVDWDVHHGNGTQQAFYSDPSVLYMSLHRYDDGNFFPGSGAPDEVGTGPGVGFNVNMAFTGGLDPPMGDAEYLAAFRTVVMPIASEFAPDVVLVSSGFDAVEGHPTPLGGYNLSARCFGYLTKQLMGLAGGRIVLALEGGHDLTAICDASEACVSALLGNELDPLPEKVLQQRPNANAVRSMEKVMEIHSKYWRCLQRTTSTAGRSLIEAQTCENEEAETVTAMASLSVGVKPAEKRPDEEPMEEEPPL

SMILES | IC50 (HDAC4) | IC50 (HDAC8)
CCOc1c(N(C(C)C)C(C)C)c(=O)c1=O [Compound 11] | > 35 µM | > 35 µM
CC(C)N1CCN(C(C)C)c2c1c(=O)c2=O [Compound 17a] | > 35 µM | > 35 µM
CCOc1c(N(C)c2ccc(Br)cc2)c(=O)c1=O [Compound 9s] | > 35 µM | > 35 µM
CCOc1c(NCc2ccccc2Cl)c(=O)c1=O [Compound 10b] | > 35 µM | > 35 µM
CCOc1c(N2CCSC2)c(=O)c1=O [Compound 12i] | > 35 µM | > 35 µM
CCOc1c(Nc2ccccc2C)c(=O)c1=O [Compound 9o] | > 35 µM | > 35 µM
CCOc1c(N2CCCCC2)c(=O)c1=O [Compound 12c] | > 35 µM | > 35 µM
CCOc1c(Nc2ccc(C(F)(F)F)cc2)c(=O)c1=O [Compound 9n] | > 35 µM | > 35 µM
CCOc1c(N2CCOCC2)c(=O)c1=O [Compound 12e] | > 35 µM | > 35 µM
CCOc1c(Nc2ccc(OC)cc2)c(=O)c1=O [Compound 9l] | > 35 µM | > 35 µM
CCOc1c(NCc2ccc(Br)cc2)c(=O)c1=O [Compound 10g] | > 35 µM | > 35 µM
O=c1c(N2CCCCC2)c(N2CCCCC2)c1=O [Compound 16b] | > 35 µM | > 35 µM
CCOc1c(Nc2ccc(Br)cc2)c(=O)c1=O [Compound 9f] | > 35 µM | > 35 µM
CCOc1c(N2C[C@@H](C)O[C@@H](C)C2)c(=O)c1=O [Compound 12f] | > 35 µM | > 35 µM
CCOc1c(Nc2ccccc2OC)c(=O)c1=O [Compound 9j] | > 35 µM | > 35 µM
CCOc1c(NCc2cccc(Br)c2)c(=O)c1=O [Compound 10f] | > 35 µM | > 35 µM
CCOc1c(Nc2cccc(O)c2)c(=O)c1=O [9 h] | > 35 µM | > 35 µM
CCOc1c(NCc2ccccc2)c(=O)c1=O [Compound 10a] | > 35 µM | > 35 µM
CCOc1c(N2CCCCCC2)c(=O)c1=O [Compound 12d] | > 35 µM | > 35 µM
CN(c1ccccc1)c1c(N(C)c2ccccc2)c(=O)c1=O [Compound 14a] | > 35 µM | > 35 µM
O=c1c(Nc2ccccc2)c(Nc2ccccc2)c1=O [Compound 13a] | 14 ± 2 µM | > 35 µM
CCOc1c(Nc2ccccc2)c(=O)c1=O [Compound 9a] | > 35 µM | > 35 µM
CCOc1c(Nc2ccc(O)cc2)c(=O)c1=O [Compound 9i] | > 35 µM | > 35 µM

SMILES | IC50 (HDAC4) | IC50 (HDAC8)
CCOc1c(NCc2cccc(Cl)c2)c(=O)c1=O [Compound 10c] | > 35 µM | > 35 µM
CCOc1c(N(C)Cc2ccc(Br)cc2)c(=O)c1=O [10 h] | > 35 µM | > 35 µM
CCOc1c(Nc2ccc(Cl)cc2)c(=O)c1=O [Compound 9d] | > 35 µM | > 35 µM
O=c1c(N(Cc2ccccc2)c2ccc(Br)cc2)c(N(Cc2ccccc2)c2ccc(Br)cc2)c1=O [Compound 15] | > 35 µM | > 35 µM
CCOc1c(Nc2ccccc2O)c(=O)c1=O [Compound 9g] | > 35 µM | > 35 µM
CCOc1c(N2CCCc3ccc(Br)cc32)c(=O)c1=O [Compound 12k] | > 35 µM | > 35 µM
CCOc1c(Nc2cccc(C(=O)O)c2)c(=O)c1=O [Compound 9r] | > 35 µM | > 35 µM
CCOc1c(Nc2cccc(C(F)(F)F)c2)c(=O)c1=O [Compound 9m] | > 35 µM | > 35 µM
CCOc1c(NCc2ccc(Cl)cc2)c(=O)c1=O [Compound 10d] | > 35 µM | > 35 µM
CN1CCCN(C)c2c1c(=O)c2=O [Compound 17b] | > 35 µM | > 35 µM
CN(c1ccc(Br)cc1)c1c(N(C)c2ccc(Br)cc2)c(=O)c1=O [Compound 14c] | > 35 µM | > 35 µM
CCOc1c(NCc2ccccc2Br)c(=O)c1=O [Compound 10e] | > 35 µM | > 35 µM
CCOc1c(N2CCC2)c(=O)c1=O [Compound 12a] | > 35 µM | > 35 µM
CCOc1c(Nc2ccc(C)cc2)c(=O)c1=O [Compound 9q] | > 35 µM | > 35 µM
CCOc1c(N2CCSCC2)c(=O)c1=O [Compound 12g] | > 35 µM | > 35 µM
CCOc1c(N2CCN(C(=O)OC(C)(C)C)CC2)c(=O)c1=O [Compound 12j] | > 35 µM | > 35 µM
CCOc1c(Nc2cccc(C)c2)c(=O)c1=O [Compound 9p] | > 35 µM | > 35 µM
CCOc1c(N2CCS(=O)(=O)CC2)c(=O)c1=O [12 h] | > 35 µM | > 35 µM
CCOc1c(Nc2cccc(OC)c2)c(=O)c1=O [Compound 9k] | > 35 µM | > 35 µM
CCOc1c(Nc2cccc(Br)c2)c(=O)c1=O [Compound 9e] | > 35 µM | > 35 µM
CCOc1c(N2CCCC2)c(=O)c1=O [Compound 12b] | > 35 µM | > 35 µM
O=c1c(N2CCOCC2)c(N2CCOCC2)c1=O [Compound 16a] | > 35 µM | > 35 µM
CCOc1c(Nc2cccc(Cl)c2)c(=O)c1=O [Compound 9c] | > 35 µM | > 35 µM
